Experimental findings from patent US8501794B2, “Compounds as cannabinoid receptor ligands” (priority 2007, dated 2013) are described below.

Assay [1] has as its target T1, rat CB2 (Rattus norvegicus, UniProt Q9QZN9).
T1 sequence (Q9QZN9 1-360): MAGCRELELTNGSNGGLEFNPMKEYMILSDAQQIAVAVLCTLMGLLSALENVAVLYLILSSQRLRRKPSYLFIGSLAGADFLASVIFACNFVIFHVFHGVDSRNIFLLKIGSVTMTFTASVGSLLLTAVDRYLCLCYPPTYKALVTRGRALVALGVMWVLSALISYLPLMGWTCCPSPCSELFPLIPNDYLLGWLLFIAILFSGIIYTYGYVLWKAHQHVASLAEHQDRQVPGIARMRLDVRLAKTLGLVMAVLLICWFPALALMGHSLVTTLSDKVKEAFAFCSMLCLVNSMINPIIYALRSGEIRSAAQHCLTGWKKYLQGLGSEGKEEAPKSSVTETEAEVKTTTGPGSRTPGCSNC
Kind of assay: rat CB2 cyclase functional assay (HitHunter cAMP, HEK cells). Type of assay: cell-based. On the set-up: expressed in transfected cells; host or cells: HEK. Particulars: forskolin 18 μM.

The target of assay [2] is T2, human CB2 receptors (Homo sapiens, UniProt P34972).
T2 construct: expressed in transfected cells; host or cells: HEK293
Kind of assay: human CB2 radioligand binding assay ([3H]CP-55,940 competition).

Assay [3] has as its target T1, rat CB2. Put plainly: rat CB2 radioligand binding assay ([3H]CP-55,940 competition). Details: expressed in transfected cells; host or cells: HEK293.

T2 sequence (P34972 whole entry): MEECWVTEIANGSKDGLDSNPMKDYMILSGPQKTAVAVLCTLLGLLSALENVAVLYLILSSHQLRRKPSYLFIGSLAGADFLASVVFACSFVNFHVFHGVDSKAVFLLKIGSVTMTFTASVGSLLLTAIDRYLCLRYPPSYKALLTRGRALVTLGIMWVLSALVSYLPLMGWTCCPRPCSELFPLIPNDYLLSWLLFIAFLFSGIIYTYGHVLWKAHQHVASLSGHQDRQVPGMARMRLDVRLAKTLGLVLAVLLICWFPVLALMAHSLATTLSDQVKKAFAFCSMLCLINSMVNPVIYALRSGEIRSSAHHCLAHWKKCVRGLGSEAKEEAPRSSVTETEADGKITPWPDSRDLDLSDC

As to `CCCCc1cn(C(C)(C)C)s/c1=N\C(=O)[C@H]1CC[C@@](C)(C(=O)OC)C1(C)C` [Example 170, Methyl (1R,3S)-3-({[(5Z)-4-butyl-2-tert-butylisothiazol-5(2H)-ylidene]amino}carbonyl)-1,2,2-trimethylcyclopentanecarboxylate], the EC50 in assay [1] turned out to be 0.043 nM. The Ki was 1.4 nM in assay [2] and 1.7 nM in assay [3].
`CCCCc1cn(C(C)(C)C)s/c1=N\C(=O)[C@H]1CC[C@@](C)(C(N)=O)C1(C)C` [Example 171, (1R,3S)—N^3-[(5Z)-4-butyl-2-tert-butylisothiazol-5(2H)-ylidene]-1,2,2-trimethylcyclopentane-1,3-dicarboxamide] gave an EC50 in assay [1] of 0.19 nM. Further, the values for the Ki in assay [2] and in assay [3] were 9 nM and 5.8 nM, respectively.
For `CCCCc1cn(C(C)(C)C)s/c1=N\C(=O)[C@]1(C)CC[C@H](C(=O)O)C1(C)C` [Example 173, (1S,3R)-3-({[(5Z)-4-butyl-2-tert-butylisothiazol-5(2H)-ylidene]amino}carbonyl)-2,2,3-trimethylcyclopentanecarboxylic acid], in that order: 3.5 nM, 107 nM and 77 nM.
For `CCCCc1cn(C(C)(C)C)s/c1=N\C(=O)[C@@]1(C)CC[C@@H](C(=O)O)C1(C)C` [Example 174, (1R,3S)-3-({[(5Z)-4-butyl-2-tert-butylisothiazol-5(2H)-ylidene]amino}carbonyl)-2,2,3-trimethylcyclopentanecarboxylic acid] the same measures were 3.4 nM, 62 nM and 33 nM.
For the compound `CCCCc1cn(C(C)(C)C)s/c1=N\C(=O)[C@]1(C)CC[C@H](C(=O)OCC)C1(C)C` [Example 175, Ethyl (1S,3R)-3-({[(5Z)-4-butyl-2-tert-butylisothiazol-5(2H)-ylidene]amino}carbonyl)-2,2,3-trimethylcyclopentanecarboxylate], it took 0.54 nM to reach a half-maximal effect in assay [1] (EC50). In addition, the Ki in assay [2] was 3.8 nM; in assay [3], 1.5 nM.
For `CCCCc1cn(C(C)(C)C)s/c1=N\C(=O)[C@@]1(C)CC[C@@H](C(=O)OCC)C1(C)C` [Example 176, Ethyl (1R,3S)-3-({[(5Z)-4-butyl-2-tert-butylisothiazol-5(2H)-ylidene]amino}carbonyl)-2,2,3-trimethylcyclopentanecarboxylate] the same measures were 1.1 nM, 16 nM and 7 nM.
For `CCCCc1cn(C(C)(C)C)s/c1=N\C(=O)[C@]1(C)CC[C@H](C(=O)OC)C1(C)C` [Example 177, Methyl (1S,3R)-3-({[(5Z)-4-butyl-2-tert-butylisothiazol-5(2H)-ylidene]amino}carbonyl)-2,2,3-trimethylcyclopentanecarboxylate], in that order: 0.15 nM, 0.16 nM and 0.1 nM.
For `CCCCc1cn(C(C)(C)C)s/c1=N\C(=O)[C@]1(C)CC[C@H](C(=O)NC)C1(C)C` [Example 184, (1R,3S)—N^1-[(5Z)-4-butyl-2-tert-butylisothiazol-5(2H)-ylidene]-N^3,1,2,2-tetramethylcyclopentane-1,3-dicarboxamide] the same measures were 0.41 nM, 6.5 nM and 3.2 nM.
The compound `CCCCc1cn(C(C)(C)C)s/c1=N\C(=O)[C@@]1(C)CC[C@@H](C(=O)OC)C1(C)C` [Example 186, Methyl (1R,3S)-3-({[(5Z)-4-butyl-2-tert-butylisothiazol-5(2H)-ylidene]amino}carbonyl)-2,2,3-trimethylcyclopentanecarboxylate] displayed an EC50 in assay [1] of 0.38 nM. For the same compound, the results for the Ki in assay [2] and in assay [3] were 1.7 nM and 1.4 nM, respectively.
`CCCCc1cn(C(C)(C)C)s/c1=N\C(=O)NC1CCC(C)CC1` (stereo not drawn) [Example 191, N-[(5Z)-4-butyl-2-tert-butylisothiazol-5(2H)-ylidene]-N′-(4-methylcyclohexyl)urea] registered an EC50 in assay [1] of 0.51 nM. Moreover, the Ki is 15 nM in assay [2] and 1.8 nM in assay [3].
In assay [1], `CCCCc1cn(C(C)(C)C)s/c1=N\C(=O)c1cc(C(F)(F)F)ccc1OC[C@@H]1CCCN1C` [Example 192, N-[(5Z)-4-butyl-2-tert-butylisothiazol-5(2H)-ylidene]-2-{[(2S)-1-methylpyrrolidin-2-yl]methoxy}-5-(trifluoromethyl)benzamide] registered an EC50 of 3.4 nM. Besides, the figures for the Ki in assay [2] and in assay [3] were 46 nM and 18 nM, respectively.
In assay [1], `CCCCc1cn(C(C)(C)C)s/c1=N\C(=NC#N)c1cc(C(F)(F)F)ccc1OC[C@@H]1CCCN1C` [Example 193] had an EC50 of 2.7 nM. Further, the Ki in assay [2] was found to be 37 nM; in assay [3], 97 nM.
For `CCCCc1cn(C(C)(C)C)s/c1=N\C(=O)c1cc(C(F)(F)F)ccc1OC[C@@H]1COC(=O)N1` [Example 195, N-[(5Z)-4-butyl-2-tert-butylisothiazol-5(2H)-ylidene]-2-{[(4R)-2-oxo-1,3-oxazolidin-4-yl]methoxy}-5-(trifluoromethyl)benzamide], the EC50 in assay [1] was 1.4 nM. In addition, the Ki in assay [2] was found to be 16 nM; in assay [3] it was 7.6 nM.
In turn, `CCCCc1cn(C(C)(C)C)s/c1=N\C(=O)c1cc(C(F)(F)F)ccc1OCC1CCCCN1C` (stereo not drawn) [Example 196, N-[(5Z)-4-butyl-2-tert-butylisothiazol-5(2H)-ylidene]-2-[(1-methylpiperidin-2-yl)methoxy]-5-(trifluoromethyl)benzamide] registered an EC50 in assay [1] of 2.4 nM. Further, the Ki in assay [2] worked out at 18 nM; in assay [3], 28.8 nM.
For `CCCCc1cn(C(C)(C)C)s/c1=N\C(=O)[C@@H]1CC[C@](C)(C(=O)NC)C1(C)C` [Example 209, (1S,3R)—N^3-[(5Z)-4-butyl-2-tert-butylisothiazol-5(2H)-ylidene]-N^1,1,2,2-tetramethylcyclopentane-1,3-dicarboxamide] the same measures were 0.44 nM, 12 nM and 7.3 nM.
As to `CCCCc1cn(C(C)(C)C)s/c1=N\C(=O)[C@@H]1CC[C@](C)(C(=O)NCC)C1(C)C` [Example 210, (1S,3R)—N^3-[(5Z)-4-butyl-2-tert-butylisothiazol-5(2H)-ylidene]-N^1-ethyl-1,2,2-trimethylcyclopentane-1,3-dicarboxamide], a half-maximal effect in assay [1] (EC50) was put at 0.19 nM. Further, the Ki was 36 nM in assay [2] and 49 nM in assay [3].
For `CCCCc1cn(C(C)(C)C)s/c1=N\C(=O)[C@@H]1CC[C@](C)(C(=O)NCCO)C1(C)C` [Example 212, (1S,3R)—N^3-[(5Z)-4-butyl-2-tert-butylisothiazol-5(2H)-ylidene]-N^1-(2-hydroxyethyl)-1,2,2-trimethylcyclopentane-1,3-dicarboxamide], in that order: 6.2 nM, 180 nM and 257 nM.
For `CCCCc1cn(C(C)(C)C)s/c1=N\C(=O)[C@]1(C)CC[C@H](C2=NCCO2)C1(C)C` [Example 217, (1R,3S)—N-[(5Z)-4-butyl-2-tert-butylisothiazol-5(2H)-ylidene]-3-(4,5-dihydro-1,3-oxazol-2-yl)-1,2,2-trimethylcyclopentanecarboxamide] the same measures were 0.16 nM, 0.7 nM and 0.73 nM.
The compound `CCCCc1cn(C(C)(C)C)s/c1=N\C(=O)[C@@]1(C)CC[C@@H](C(=O)NC)C1(C)C` [Example 218, (1S,3R)—N^1-[(5Z)-4-butyl-2-tert-butylisothiazol-5(2H)-ylidene]-N^3,1,2,2-tetramethylcyclopentane-1,3-dicarboxamide] displayed an EC50 in assay [1] of 1.1 nM. Also, the Ki in assay [2] was found to be 53 nM; in assay [3], 29 nM.
For `CCCCc1cn(C(C)(C)C)s/c1=N\C(=O)[C@@]1(C)CC[C@@H](C(=O)N2CCC2)C1(C)C` [Example 222, (1S,3R)-3-(azetidin-1-ylcarbonyl)-N-[(5Z)-4-butyl-2-tert-butylisothiazol-5(2H)-ylidene]-1,2,2-trimethylcyclopentanecarboxamide], in that order: 5.7 nM, 170 nM and 70 nM.
For `CCCCc1cn(C(C)(C)C)s/c1=N\C(=O)[C@@]1(C)CC[C@@H](C(=O)N(C)C)C1(C)C` [Example 223, (1S,3R)—N^1-[(5Z)-4-butyl-2-tert-butylisothiazol-5(2H)-ylidene]-N^3,N^3,1,2,2-pentamethylcyclopentane-1,3-dicarboxamide] the same measures were 5.8 nM, 92 nM and 62 nM.
`CCCCc1cn(C(C)(C)C)s/c1=N\C(=O)[C@@]1(C)CC[C@@H](C(=O)NCC(F)(F)F)C1(C)C` [Example 240, (1S,3R)—N^1-[(5Z)-4-butyl-2-tert-butylisothiazol-5(2H)-ylidene]-1,2,2-trimethyl-N^3-(2,2,2-trifluoroethyl)cyclopentane-1,3-dicarboxamide] gave an EC50 in assay [1] of 2.5 nM. For the same compound, the Ki amounted to 100 nM in assay [2] and 156 nM in assay [3].
For `CCCCc1cn(C(C)(C)C)s/c1=N\C(=O)[C@]1(C)CC[C@H](NC(N)=O)C1(C)C` [Example 245, (1R,3S)-3-[(aminocarbonyl)amino]-N-[(5Z)-4-butyl-2-tert-butylisothiazol-5(2H)-ylidene]-1,2,2-trimethylcyclopentanecarboxamide] the same measures were 9.6 nM, 32 nM and 35 nM.

The term EC50 denotes the concentration giving half of the maximal effect. Low values mean greater potency, high ones weaker potency. Broadly, the Ki is a dissociation constant, usually derived from enzyme kinetics or from competition with a known ligand. Lower therefore signals tighter binding.
